Assay results as given in US20230165831A1, “METHOD AND COMPOSITION FOR RENDERING CANCER CELLS SUSCEPTIBLE TO TREATMENT BY TARGETED ONCOGENETIC DRIVERS” (IMPACT BIOLIFE SCIENCE, INC., priority 2021, published 2023).

Columns and labels:
[1] = system: gastric cancer line MKN45 cells; assay: CTG (CellTiter-Glo) cell viability assay, 6×6 combo matrix, 72 h, MKN45;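 also: MKN45 cell viability read as CellTiter-Glo luminescence after 72 h culture at 37 °C under 5% CO2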
[2] = system: colorectal cancer line HT29 cells; assay: CTG (CellTiter-Glo) cell viability assay, 6×6 combo matrix, 72 h, HT29; conditions: HT29;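 also: cells exposed to compounds for 72 hours at 37 °C under 5% CO2, then viability read as luminescence after adding CellTiter-Glo Reagent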
[3] = system: pancreatic cancer line Capan-1 cells; assay: CTG (CellTiter-Glo) cell viability assay, 6×6 combo matrix, 72 h, Capan-1; assay type: cell-based; conditions: for Relatively Cell inhibition of vehicle control(%): Capan-1
Protocol: To measure the cell inhibition effect of compounds and synergy effect of test articles on ten (10) cell lines using standard CTG assay.
b. A549, T47D, SK-OV-3, MKN45, SK-Hep-1, HT-29, Capan-1, 786-O and LNCaP cell line, for compounds and vehicle groups, the seeding density of cell lines is 3000 cells/80 µL per well. For blank groups, add 100 µL medium. For PBS groups, add 100 µL PBS.
8) Incubate the U87MG, A549, T47D, SK-OV-3, MKN45, SK-Hep-1, HT-29, Capan-1, 786-O and LNCaP cells overnight at 37° C./5% CO2.
5) Incubate the plates at 37° C./5% CO2 for 72 hours.
6) Read plates in Envision.

[4] = system: ovarian cancer line SK-OV3 cells; assay: CTG (CellTiter-Glo) cell viability assay, 6×6 combo matrix, 72 h, SK-OV-3; conditions: SK-OV-3;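 also: luminescent signal read after CellTiter-Glo addition, cells exposed to compounds for 72 h at 37 °C under 5% CO2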
Protocol: 7) Using complete cell medium, adjust the volume of the suspension to achieve a cell concentration.
Solid compound of cis-platinum was solubilized in PBS to a stock solution of 3.333 mM.
Final volume is 100 µL per well at this point.
1) Incubate the plates at room temperature and away from light for 30 minutes.
3) Add 100 µL /well of CellTiter-Glo® Reagent in each well. Avoid light.
4) Mix contents for 2 minutes on an orbital shaker.
5) Incubate plate at room temperature for 10 minutes to stabilize the luminescent signal.

[5] = Homo sapiens, CAPAN-1, read-out: inhibition rate
[6] = Myr 0.8 µM only (cisplatin matrix)
[7] = Myr 0.8 µM only (doxorubicin matrix)
[8] = Myr 0.8 µM only (topotecan matrix)
[9] = Myr 4 µM only (cisplatin matrix)
[10] = Myr 20 µM only (cisplatin matrix)
[11] = Myr 100 µM only (cisplatin matrix)

O=c1c(O)c(-c2cc(O)c(O)c(O)c2)oc2cc(O)cc(O)c12 [myricetin]
Relatively Cell inhibition of vehicle control(%) ([1]; Myr 0.8 µM only (Cis 0)): 5.96% | Relatively Cell inhibition of vehicle control(%) ([1]; Myr 0.8 µM only (Dox 0)): 1.79% | Relatively Cell inhibition of vehicle control(%) ([1]; Myr 0.8 µM only (Tax 0)): 0.13% | Relatively Cell inhibition of vehicle control(%) ([1]; Myr 0.8 µM only (Top 0)): -8.02% | Relatively Cell inhibition of vehicle control(%) ([1]; Myr 4 µM only (Cis 0)): 6.78% | Relatively Cell inhibition of vehicle control(%) ([1]; Myr 4 µM only (Dox 0)): 2.42% | Relatively Cell inhibition of vehicle control(%) ([1]; Myr 4 µM only (Tax 0)): -1.75% | Relatively Cell inhibition of vehicle control(%) ([1]; Myr 4 µM only (Top 0)): -4.89% | Relatively Cell inhibition of vehicle control(%) ([1]; Myr 20 µM only (Cis 0)): 14.42% | Relatively Cell inhibition of vehicle control(%) ([1]; Myr 20 µM only (Dox 0)): 13.04% | Relatively Cell inhibition of vehicle control(%) ([1]; Myr 20 µM only (Tax 0)): 5.06% | Relatively Cell inhibition of vehicle control(%) ([1]; Myr 20 µM only (Top 0)): 1.70% | Relatively Cell inhibition of vehicle control(%) ([1]; Myr 100 µM only (Cis 0), listed as Myr): 44.00% | Relatively Cell inhibition of vehicle control(%) ([1]; Myr 100 µM only (Dox 0)): 35.29% | Relatively Cell inhibition of vehicle control(%) ([1]; Myr 100 µM only (Tax 0)): 32.89% | Relatively Cell inhibition of vehicle control(%) ([1]; Myr 100 µM only (Top 0)): 29.93% | Relatively Cell inhibition of vehicle control(%) ([2]; Myr 0.8 µM only (Cis 0)): 3.87% | Relatively Cell inhibition of vehicle control(%) ([2]; Myr 0.8 µM only (Dox 0)): -1.09% | Relatively Cell inhibition of vehicle control(%) ([2]; Myr 0.8 µM only (Tax 0)): -1.36% | Relatively Cell inhibition of vehicle control(%) ([2]; Myr 0.8 µM only (Top 0)): -0.48% | Relatively Cell inhibition of vehicle control(%) ([2]; Myr 4 µM only (Cis 0)): 6.56% | Relatively Cell inhibition of vehicle control(%) ([2]; Myr 4 µM only (Dox 0)): -0.67% | Relatively Cell inhibition of vehicle control(%) ([2]; Myr 4 µM only (Tax 0)): 0.80% | Relatively Cell inhibition of vehicle control(%) ([2]; Myr 4 µM only (Top 0)): 3.33% | Relatively Cell inhibition of vehicle control(%) ([2]; Myr 20 µM only (Cis 0)): 24.55% | Relatively Cell inhibition of vehicle control(%) ([2]; Myr 20 µM only (Dox 0)): 23.37% | Relatively Cell inhibition of vehicle control(%) ([2]; Myr 20 µM only (Tax 0)): 32.84% | Relatively Cell inhibition of vehicle control(%) ([2]; Myr 20 µM only (Top 0)): 24.77% | Relatively Cell inhibition of vehicle control(%) ([2]; Myr 100 µM only (Cis 0)): 90.42% | Relatively Cell inhibition of vehicle control(%) ([2]; Myr 100 µM only (Dox 0)): 74.39% | Relatively Cell inhibition of vehicle control(%) ([2]; Myr 100 µM only (Tax 0)): 88.39% | Relatively Cell inhibition of vehicle control(%) ([2]; Myr 100 µM only (Top 0)): 87.04% | inhibition at 4 µM [3, 5]: 6.24% | inhibition at 100 µM [3, 5]: 23.3% | Relatively Cell inhibition of vehicle control(%) ([3]; Myr 4 pM only (topotecan matrix)): 0.67% | Relatively Cell inhibition of vehicle control(%) ([3]; Myr 20 pM only (doxorubicin matrix)): 11.98% | Relatively Cell inhibition of vehicle control(%) ([3]; Myr 20 pM only (topotecan matrix)): 5.10% | Relatively Cell inhibition of vehicle control(%) ([3]; Myr 100 pM only (doxorubicin matrix)): 30.94% | Relatively Cell inhibition of vehicle control(%) [3, 6]: 1.28% | Relatively Cell inhibition of vehicle control(%) [3, 7]: 7.91% | Relatively Cell inhibition of vehicle control(%) ([3]; Myr 0.8 µM only (taxol matrix)): 3.71% | Relatively Cell inhibition of vehicle control(%) [3, 8]: -6.16% | Relatively Cell inhibition of vehicle control(%) [3, 9]: 6.73% | Relatively Cell inhibition of vehicle control(%) ([3]; Myr 4 µM only (taxol matrix)): 7.41% | Relatively Cell inhibition of vehicle control(%) [3, 10]: 10.48% | Relatively Cell inhibition of vehicle control(%) ([3]; Myr 20 µM only (taxol matrix)): 9.11% | Relatively Cell inhibition of vehicle control(%) [3, 11]: 31.40% | Relatively Cell inhibition of vehicle control(%) ([3]; Myr 100 µM only (taxol matrix)): 30.66% | Relatively Cell inhibition of vehicle control(%) [4, 6]: 2.08% | Relatively Cell inhibition of vehicle control(%) [4, 7]: 0.36% | Relatively Cell inhibition of vehicle control(%) ([4]; Myr 0.8 µM only (taxol matrix)): 0.71% | Relatively Cell inhibition of vehicle control(%) [4, 8]: 4.27% | Relatively Cell inhibition of vehicle control(%) [4, 9]: 2.94% | Relatively Cell inhibition of vehicle control(%) ([4]; Myr 4 µM only (doxorubicin matrix)): 1.70% | Relatively Cell inhibition of vehicle control(%) ([4]; Myr 4 µM only (taxol matrix)): 0.87% | Relatively Cell inhibition of vehicle control(%) ([4]; Myr 4 µM only (topotecan matrix)): 3.31% | Relatively Cell inhibition of vehicle control(%) [4, 10]: 9.41% | Relatively Cell inhibition of vehicle control(%) ([4]; Myr 20 µM only (doxorubicin matrix)): 1.89% | Relatively Cell inhibition of vehicle control(%) ([4]; Myr 20 µM only (taxol matrix)): 7.54% | Relatively Cell inhibition of vehicle control(%) ([4]; Myr 20 µM only (topotecan matrix)): 0.29% | Relatively Cell inhibition of vehicle control(%) [4, 11]: 89.47% | Relatively Cell inhibition of vehicle control(%) ([4]; Myr 100 µM only (doxorubicin matrix)): 91.33% | Relatively Cell inhibition of vehicle control(%) ([4]; Myr 100 µM only (taxol matrix)): 87.91% | Relatively Cell inhibition of vehicle control(%) ([4]; Myr 100 µM only (topotecan matrix)): 87.18%
